These results are taken from patent US20230113037A1 (Bayer Aktiengesellschaft, priority 2019, published 2023).

In test [1] the target is T1, AHR (Mus musculus, UniProt P30561).
T1 sequence (P30561 1-848 P471L/N533S/M589L): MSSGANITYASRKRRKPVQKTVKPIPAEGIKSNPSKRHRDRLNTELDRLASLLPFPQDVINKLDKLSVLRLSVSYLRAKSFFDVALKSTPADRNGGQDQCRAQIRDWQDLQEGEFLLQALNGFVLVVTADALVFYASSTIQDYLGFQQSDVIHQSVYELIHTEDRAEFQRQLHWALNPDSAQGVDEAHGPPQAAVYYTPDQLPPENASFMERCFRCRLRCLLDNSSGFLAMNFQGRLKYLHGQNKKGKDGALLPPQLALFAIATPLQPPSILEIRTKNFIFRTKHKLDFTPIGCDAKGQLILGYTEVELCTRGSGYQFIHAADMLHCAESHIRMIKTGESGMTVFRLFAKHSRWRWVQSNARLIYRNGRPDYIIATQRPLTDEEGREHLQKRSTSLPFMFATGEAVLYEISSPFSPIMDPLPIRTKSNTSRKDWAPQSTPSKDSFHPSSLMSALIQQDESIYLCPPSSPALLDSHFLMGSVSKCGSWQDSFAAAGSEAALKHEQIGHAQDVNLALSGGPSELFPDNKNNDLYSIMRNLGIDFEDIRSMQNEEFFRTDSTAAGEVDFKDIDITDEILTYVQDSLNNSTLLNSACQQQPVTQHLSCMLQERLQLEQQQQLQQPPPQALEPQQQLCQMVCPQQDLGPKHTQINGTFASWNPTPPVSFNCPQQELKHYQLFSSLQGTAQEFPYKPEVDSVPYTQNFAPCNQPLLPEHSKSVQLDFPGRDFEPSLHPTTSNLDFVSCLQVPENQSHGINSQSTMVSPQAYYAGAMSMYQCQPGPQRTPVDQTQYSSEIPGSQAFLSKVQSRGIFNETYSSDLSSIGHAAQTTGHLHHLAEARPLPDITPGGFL
The experiment in a line: In vitro assay 3: antagonism in mouse cell line (AHR transactivation, firefly luciferase reporter, kynurenic acid prestimulated). The class given is cell-based. In a few lines:
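Antagonism read as reduced firefly luciferase signal (SteadyGlo) from a stably transfected AHR/DRE reporter in a mouse line prestimulated with kynurenic acid. Data normalized to controls, the full-inhibition control being cells without kynurenic acid; multiple determinations given as average or median values.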
In general terms: In a reporter assay the amount or activity of a reporter protein is the signal.

Test [2] has as its target T2, AHR (Homo sapiens, UniProt P35869).
T2 construct: U87 MG glioblastoma cells (ATCC #HTB-14) endogenously expressing AHR; endogenous in cells; host or cells: U87 MG glioblastoma cells (ATCC #HTB-14)
T2 sequence (P35869 11-848): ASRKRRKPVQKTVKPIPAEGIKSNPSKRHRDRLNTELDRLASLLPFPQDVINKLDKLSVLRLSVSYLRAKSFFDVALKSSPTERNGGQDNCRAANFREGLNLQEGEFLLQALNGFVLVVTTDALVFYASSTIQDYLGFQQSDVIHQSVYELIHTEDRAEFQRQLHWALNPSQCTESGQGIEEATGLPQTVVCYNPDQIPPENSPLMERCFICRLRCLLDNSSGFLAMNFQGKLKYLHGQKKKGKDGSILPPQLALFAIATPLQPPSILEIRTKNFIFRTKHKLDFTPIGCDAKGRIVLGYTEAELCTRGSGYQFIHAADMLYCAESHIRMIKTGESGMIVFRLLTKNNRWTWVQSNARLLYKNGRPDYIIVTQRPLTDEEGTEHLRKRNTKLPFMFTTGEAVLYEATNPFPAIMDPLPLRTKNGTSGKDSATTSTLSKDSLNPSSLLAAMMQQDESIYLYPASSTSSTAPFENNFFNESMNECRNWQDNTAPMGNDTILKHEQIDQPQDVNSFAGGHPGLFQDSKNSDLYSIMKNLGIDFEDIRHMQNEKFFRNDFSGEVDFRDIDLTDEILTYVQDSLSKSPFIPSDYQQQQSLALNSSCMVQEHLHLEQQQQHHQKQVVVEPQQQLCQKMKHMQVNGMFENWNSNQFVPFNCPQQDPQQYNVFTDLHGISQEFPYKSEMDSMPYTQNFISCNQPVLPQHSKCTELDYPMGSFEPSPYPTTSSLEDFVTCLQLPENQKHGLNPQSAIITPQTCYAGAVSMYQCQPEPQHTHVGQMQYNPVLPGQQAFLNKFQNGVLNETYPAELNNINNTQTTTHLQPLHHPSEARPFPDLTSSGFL
The experiment in a line: In vitro assay 1: antagonism in human cell line (AHR transactivation, firefly luciferase reporter, kynurenic acid prestimulated). The class given is cell-based. Conditions: AHR Antagonism Human IC50 [M]. In a few lines:
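Antagonism measured as loss of kynurenic acid-driven firefly luciferase from DRE reporter in stably transfected U87 MG cells; constitutive Renilla signal monitors cytotoxicity. Positive/negative control normalization, staurosporine 5 μM with 150 μM kynurenic acid as inhibition control; replicates given as mean or median.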

[3] abbreviates: Hepa 1c1c7 cells, 200 μM kynurenic acid, 20 hours, firefly luciferase reporter, read-out: AHR Antagonism Mouse IC50.
Where [4] appears, read: mouse Hepa 1c1c7 cells, 200 μM kynurenic acid, 20 hours, read-out: AHR Antagonism Mouse IC50.
Setting [5] is: read-out: AHR Antagonism Mouse IC50, mouse Hepa 1c1c7 cells, 200 μM kynurenic acid, 20 hours.

Molecules are shown by their SMILES. Where two headings read alike, the source gives them in different places.

By IC50 is commonly meant the concentration that inhibits the measured activity by half. As to `CCOC(=O)[C@@H](C)Nc1nc2c(Br)cccc2c2nc(-c3ccc(OC)cc3)nn12` [Example 865, ethyl N-[7-bromo-2-(4-methoxyphenyl)[1,2,4]triazolo[1,5-c]quinazolin-5-yl]-D-alaninate], the IC50 in test [1] (setting [3]) is 11.8 nM; in test [2] (firefly luciferase reporter), 4.02e-09 M.
For the compound `Cn1cc(-c2nc3c4cc(Cl)ccc4nc(N[C@@H]4CCCCNC4=O)n3n2)cn1` [Example 236, (3R)-3-{[9-chloro-2-(1-methyl-1H-pyrazol-4-yl)[1,2,4]triazolo[1,5-c]quinazolin-5-yl]amino}azepan-2-one], the results for the IC50 in test [1] (setting [4]) and in test [2] were 21.2 nM and 2.62e-08 M, respectively.
The corresponding values for `COc1ccc(-c2nc3c4cccc(Br)c4nc(N[C@H](C)C(=O)NCCN4CCOCC4)n3n2)cc1` [Example 781, N^2-[7-bromo-2-(4-methoxyphenyl)[1,2,4]triazolo[1,5-c]quinazolin-5-yl]-N-[2-(morpholin-4-yl)ethyl]-D-alaninamide] are 2.09 nM and 1.17e-09 M.
For `COc1ccc(-c2nc3c4cccc(OCCC(C)(C)OC)c4nc(N[C@@H]4CCCCNC4=O)n3n2)cc1` [Example 996, (3R)-3-{[7-(3-methoxy-3-methylbutoxy)-2-(4-methoxyphenyl)[1,2,4]triazolo[1,5-c]quinazolin-5-yl]amino}azepan-2-one], the IC50 in test [1] (setting [3]) came to 78.1 nM; in test [2] (firefly luciferase reporter), 2.8e-07 M.
For `O=C1NCCCC[C@H]1Nc1nc2c(Br)cccc2c2nc(-c3cnn(CC4CCC4)c3)nn12` [Example 832, (3R)-3-({7-bromo-2-[1-(cyclobutylmethyl)-1H-pyrazol-4-yl][1,2,4]triazolo[1,5-c]quinazolin-5-yl}amino)azepan-2-one] the same measures were 5.68 nM and 2.58e-09 M.
For `CC(C)n1cc(-c2nc3c4cccc(S(C)(=O)=O)c4nc(N[C@@H]4CNCCNC4=O)n3n2)cn1` [Example 944, (6R)-6-({7-(methanesulfonyl)-2-[1-(propan-2-yl)-1H-pyrazol-4-yl][1,2,4]triazolo[1,5-c]quinazolin-5-yl}amino)-1,4-diazepan-5-one] the same measures were 4620 nM and 1.67e-06 M.
Consider `Cc1cscc1-c1nc2c3ccccc3nc(N[C@@H]3CCCCNC3=O)n2n1` [Example 538, (3R)-3-{[2-(4-methylthiophen-3-yl)[1,2,4]triazolo[1,5-c]quinazolin-5-yl]amino}azepan-2-one], for which the values for the IC50 in test [1] (setting [4]) and in test [2] were 0.646 nM and 8.79e-10 M, respectively.
For `NC(=O)[C@@H](CO)Nc1nc2ccccc2c2nc(-c3ccccc3OC(F)(F)F)nn12` [Example 468, N^2-{2-[2-(trifluoromethoxy)phenyl][1,2,4]triazolo[1,5-c]quinazolin-5-yl}-D-serinamide] the same measures were 42.7 nM and 6.73e-08 M.
For `CCn1cc(-c2nc3c4cccc(Br)c4nc(N[C@@H]4CNCCNC4=O)n3n2)cn1` [Example 980, (6R)-6-{[7-bromo-2-(1-ethyl-1H-pyrazol-4-yl)[1,2,4]triazolo[1,5-c]quinazolin-5-yl]amino}-1,4-diazepan-5-one], the concentration for half-maximal inhibition (IC50) was found to be 6.35 nM in test [1] (setting [3]) and 5.22e-09 M in test [2] (firefly luciferase reporter).
With `Cc1sccc1-c1nc2c3ccccc3nc(N[C@@H]3CCN(C)C3=O)n2n1` [Example 350], the IC50 was determined as 3.59 nM in test [1] (setting [4]) and 4.13e-08 M in test [2].
`CS(=N)(=O)c1ccccc1-c1nc2c3ccccc3nc(N[C@@H]3CCCCNC3=O)n2n1` (single isomer, unassigned) [Example 661]: the figures for the IC50 in test [1] (setting [5]) and in test [2] were 139 nM and 1.53e-07 M, respectively.
In the case of `COc1cccc(-c2nc3c4cc(C)ccc4nc(N[C@@H]4CCCCNC4=O)n3n2)c1` [Example 154, (3R)-3-{[2-(3-methoxyphenyl)-9-methyl[1,2,4]triazolo[1,5-c]quinazolin-5-yl]amino}azepan-2-one], the IC50 in test [1] (setting [4]) was found to be 1.16 nM; in test [2], 2.18e-09 M.
The corresponding values for `O=C1NCCCC[C@H]1Nc1nc2c(Cl)cccc2c2nc(-c3ccncc3)nn12` [Example 193, (3R)-3-{[7-Chloro-2-(pyridin-4-yl)[1,2,4]triazolo[1,5-c]quinazolin-5-yl]amino}azepan-2-one] are 87.2 nM and 2.05e-08 M.
In the case of `O=C1NCCCC[C@H]1Nc1nc2ccccc2c2nc(-c3ccsc3Cl)nn12` [Example 611, (3R)-3-{[2-(2-chlorothiophen-3-yl)[1,2,4]triazolo[1,5-c]quinazolin-5-yl]amino}azepan-2-one], the figures for the IC50 in test [1] (setting [4]) and in test [2] were 3.16 nM and 4.36e-09 M, respectively.
For `O=C1NCCCC[C@H]1Nc1nc2ccccc2c2nc(-c3cc(C(F)(F)F)ccn3)nn12` [Example 363, (3R)-3-({2-[4-(trifluoromethyl)pyridin-2-yl][1,2,4]triazolo[1,5-c]quinazolin-5-yl}amino)azepan-2-one], the IC50 amounted to 10.7 nM in test [1] (setting [5]) and 3.5e-08 M in test [2].
In the case of `O=C1NCCCC[C@@H]1Nc1nc2ccccc2c2nc(-c3ccc(Cl)cc3OC(F)F)nn12` [Example 526, (3S)-3-({2-[4-chloro-2-(difluoromethoxy)phenyl][1,2,4]triazolo[1,5-c]quinazolin-5-yl}amino)azepan-2-one], the IC50 in test [1] (setting [4]) amounted to 2.33 nM; in test [2], 1.47e-08 M.
For `N#Cc1cccc2nc(N[C@@H]3CCCCNC3=O)n3nc(-c4cccc(F)c4)nc3c12` [Example 249, 2-(3-fluorophenyl)-5-{[(3R)-2-oxoazepan-3-yl]amino}[1,2,4]triazolo[1,5-c]quinazoline-10-carbonitrile] the same measures were 3.63 nM and 2.96e-08 M.
On to `O=C1NCC[C@H]1Nc1nc2ccccc2c2nc(-c3ccccc3OC(F)F)nn12` [Example 473, (3R)-3-({2-[2-(difluoromethoxy)phenyl][1,2,4]triazolo[1,5-c]quinazolin-5-yl}amino)pyrrolidine-2-one], for which the values for the IC50 in test [1] (setting [4]) and in test [2] were 17.9 nM and 5.1e-08 M, respectively.
For `O=C1NCCCC[C@H]1Nc1nc2c(C(F)(F)F)cccc2c2nc(-c3cn[nH]c3)nn12` [Example 677, (3R)-3-{[2-(1H-pyrazol-4-yl)-7-(trifluoromethyl)[1,2,4]triazolo[1,5-c]quinazolin-5-yl]amino}azepan-2-one] the same measures were 53.1 nM and 1.33e-08 M.
The corresponding values for `CC[C@H](Nc1nc2ccccc2c2nc(-c3ccccc3S(C)(=O)=O)nn12)C(N)=O` [Example 450, (2S)-2-({2-[2-(methanesulfonyl)phenyl][1,2,4]triazolo[1,5-c]quinazolin-5-yl}amino)butanamide] are 8570 nM and over 2e-05 M.
For `COc1ccc(-c2nc3c4ccccc4nc(N[C@@H]4CCCCNC4=O)n3n2)c(F)c1` [Example 631, (3R)-3-{[2-(2-fluoro-4-methoxyphenyl)[1,2,4]triazolo[1,5-c]quinazolin-5-yl]amino}azepan-2-one] the same measures were 3.53 nM and 1e-09 M.
